Experimental data from publication PMC10385579, “Design, Synthesis, and Biological Evaluation of Indole-2-carboxamides as Potential Multi-Target Antiproliferative Agents” (Pharmaceuticals, 2023).
Like-named read-outs stand apart in the source and are kept apart here.

Key:
[1] = target: T1, VEGFR-2 (Homo sapiens, UniProt P35968); set-up: purchased Carna Biosciences, Inc; conditions: cited from earlier work
[2] = target: T2, EGFR (Homo sapiens, UniProt P00533); set-up: 645–1186); His6 (N); made in house; host or cells: Sf-9 insect cells (baculovirus; pBlueBacHis2B / pFASTBacHTc; conditions: cited from earlier work
T2 sequence (P00533 669-1210): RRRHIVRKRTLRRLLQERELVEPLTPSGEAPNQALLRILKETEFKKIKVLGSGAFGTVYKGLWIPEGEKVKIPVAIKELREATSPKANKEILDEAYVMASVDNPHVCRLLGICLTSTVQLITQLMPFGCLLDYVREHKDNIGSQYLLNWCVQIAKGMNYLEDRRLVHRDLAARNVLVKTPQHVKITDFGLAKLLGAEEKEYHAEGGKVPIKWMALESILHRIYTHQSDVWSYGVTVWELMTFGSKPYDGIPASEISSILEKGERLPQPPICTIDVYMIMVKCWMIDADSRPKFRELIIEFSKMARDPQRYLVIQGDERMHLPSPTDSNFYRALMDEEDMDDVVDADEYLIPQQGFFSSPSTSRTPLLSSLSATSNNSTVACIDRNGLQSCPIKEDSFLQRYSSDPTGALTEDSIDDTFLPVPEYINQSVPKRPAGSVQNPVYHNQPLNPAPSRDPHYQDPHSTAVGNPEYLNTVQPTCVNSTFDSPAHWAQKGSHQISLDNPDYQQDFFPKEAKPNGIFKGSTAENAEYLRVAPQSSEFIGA

[3] = system: BRAF^V600E; set-up: method as in PMID 32920363, PMID 29407956, PMID 36770936, PMID 36015154, PMID 35078049; conditions: cited from earlier work
[4] = system: cancer cell lines; set-up: method as in PMID 32920363, PMID 29407956, PMID 36770936, PMID 36015154, PMID 35078049; conditions: cited from earlier work
[5] = system: CDK2; set-up: method as in PMID 32920363, PMID 29407956, PMID 36770936, PMID 36015154, PMID 35078049; conditions: cited from earlier work
[6] = system: EGFR^T790M; set-up: method as in PMID 32920363, PMID 29407956, PMID 36770936, PMID 36015154, PMID 35078049; conditions: cited from earlier work
[7] = system: four human cancer cell lines (A-549, MCF-7, Panc-1, HT-29); experiment: Antiproliferative assay, average over the four cancer cell lines (GI50); assay type: cell-based; conditions: average of the four cancer cell lines
Experimental: See Supplementary Materials.
(§1) 4.2.1.2. Assay for antiproliferative effect
To explore the antiproliferative potential of compounds propidium iodide fluorescence assay was performed using different cell lines such as Panc-1 (pancreas cancer cell line), MCF-7 (breast […]
(§2) To calculate the total nuclear DNA, a fluorescent dye (propidium iodide, PI) is used which can attach to the DNA, thus offering a quick and precise technique. PI cannot pass through the cell membrane and its signal intensity can be considered as directly proportional to quantity of cellular
DNA. Cells whose cell membranes are damaged or have changed permeability are counted as dead ones. The assay was performed by seeding the cells of different cell lines at a density of 3000- […]
(§3) The medium was removed; the compounds were added to the plates at 10 μM concentrations (in 0.1% DMSO) in triplicates, followed by incubation for 48h. DMSO (0.1%) was used as control. After incubation, medium was removed followed by the addition of PI (25 μl, 50μg/mL in water/medium) to each well of the plates. At - 80 °C, the plates were allowed to freeze for 24 h, followed by thawing at 25 °C. A fluorometer (Polar-Star BMG Tech) was used to record the readings at excitation and emission wavelengths of 530 and 620 nm for each well. The percentage cytotoxicity of compounds was calculated using […]
Where ATC= Absorbance of treated cells and AC= Absorbance of control. […]
positive control in the assay.

[8] = system: caspase-3; experiment: Caspase 3 assay in A-549 cells; assay type: cell-based, human; conditions: for Caspase-3 Conc: untreated control 66 pg/mL; for Caspase-3 Fold Change: vs untreated control
Experimental: Caspases play a crucial function in the induction and completion of apoptosis. Caspase-3 is an essential caspase that cleaves different proteins in cells, resulting in apoptosis. […]
4.2.5. Caspase-3 activation assay
Allow all reagents to reach room temperature before use. Gently mix all liquid reagents prior to use. Determine the number of 8-well strips needed for the assay. Insert these in the frame(s) for current use. Add 100 μl of the Standard Diluent Buffer to the zero standard wells. Well(s) reserved for chromogen blank should be left empty. Add 100 μl of standards and controls or diluted samples to the appropriate microtiter wells. The sample dilution chosen should be optimized for each experimental system. Tap gently on side of plate to mix. Cover wells with plate cover and incubate for 2 hours at room temperature. Thoroughly aspirate or decant solution from wells and discard the liquid, Wash wells 4 times. Pipette 100 μl of Caspase-3 (Active) Detection Antibody solution into each well except the chromogen blank(s). Tap gently on the side of the plate to mix. Cover plate with plate cover and incubate for 1 hour at room temperature. Thoroughly aspirate or decant solution from wells and discard the liquid, Wash wells 4 times. Add 100 μl Anti-Rabbit IgG HRP Working Solution to each well except the chromogen blank(s). Prepare the working dilution as described in Preparing IgG HRP. Cover wells with the plate cover and incubate for 30 minutes at room temperature. Thoroughly aspirate or decant solution from wells and discard the liquid. Wash wells 4 times. Add 100 μl of Stabilized Chromoge n to each well. The liquid in the wells will begin to turn blue. Incubate for 30 minutes at room temperature and in the dark. The incubation time for chromogen substrate is often determined by the microtiter plate reader used. Many plate readers have the capacity to record a maximum optical density (O.D.) of 2.0. The O.D. values should be monitored, and the substrate reaction stopped before the O.D. of the positive wells exceeds the limits of the instrument. The O.D. values at 450 nm can only be read after the Stop Solution has been added to each well. If using a reader that records only to 2.0 O.D., stopping the assay after […]
Add 100 μl of Stop Solution to each well. Tap side of plate gently to mix. The solution in the wells should change from blue to yellow. Read the absorbance of each well at 450 nm having blanked the plate reader against a chromogen blank composed of 100 μl each of Stabilized Chromogen and Stop Solution. Read the plate within 2 hours after adding the Stop Solution. Use a curve fitting software to generate the standard curve. A four-parameter algorithm provides the best standard curve fit. Read the concentrations for unknown samples and controls from the standard curve. Multiply value(s) obtained for sample(s) by the appropriate dilution factor to correct for the dilution in step 3. Samples producing signals greater than that of the highest standard should be diluted in Standard Diluent Buffer and reanalyzed.

[9] = system: pancreatic cancer (Panc-1) cell line; experiment: Antiproliferative assay, Panc-1; assay type: cell-based; conditions: Homo sapiens, read-out: Antiproliferative Activity IC50 ± SEM, Panc-1
Experimental: as §1
(§4) To explore the antiproliferative potential of compounds propidium iodide fluorescence assay was performed using different cell lines such as Panc-1 (pancreas cancer cell line), MCF-7 (breast cancer cell line), HT-29 (colon cancer cell line) and A-549 (epithelial cancer cell line), respectively.
as §2
as §3, with “DNA. Cells whose cell membranes are damaged or have changed permeability are counted as dead ones. The assay was performed by seeding the cells of different cell lines at a density of 3000-7500 cells/well (in200μl medium) in culture plates followed by incubation for 24h at 37 °C in humidified 5%CO2/95% air atmospheric conditions. The medium” for “The medium”
(§5) Where ATC= Absorbance of treated cells and AC= Absorbance of control. Erlotinib was used as positive control in the assay.

[10] = system: human epithelial (A-549) cancer cell line; experiment: Antiproliferative assay, A-549; assay type: cell-based; conditions: A549, read-out: Antiproliferative Activity IC50 ± SEM, A-549
Experimental: as §1, §4, §2
as §3, with “DNA. Cells whose cell membranes are damaged or have changed permeability are counted as dead ones. The assay was performed by seeding the cells of different cell lines at a density of 3000-7500 cells/well (in200μl medium) in culture plates followed by incubation for 24h at 37 °C in humidified 5%CO2/95% air atmospheric conditions. The medium” for “The medium”
as §5

[11] = system: breast cancer (MCF-7) cell line; experiment: Antiproliferative assay, MCF-7; assay type: cell-based; conditions: Homo sapiens, MCF7; read-out: Antiproliferative Activity IC50 ± SEM, MCF-7
Experimental: as §1, §4, §2
as §3, with “DNA. Cells whose cell membranes are damaged or have changed permeability are counted as dead ones. The assay was performed by seeding the cells of different cell lines at a density of 3000-7500 cells/well (in200μl medium) in culture plates followed by incubation for 24h at 37 °C in humidified 5%CO2/95% air atmospheric conditions. The medium” for “The medium”
as §5

[12] = target: T2, EGFR; experiment: EGFR inhibitory assay
[13] = target: BRAF^V600E (Mus musculus, UniProt P28028, V585E); experiment: BRAF^V600E inhibitory assay
Sequence of BRAF^V600E (Mus musculus, UniProt P28028, V585E) (P28028 whole entry V585E): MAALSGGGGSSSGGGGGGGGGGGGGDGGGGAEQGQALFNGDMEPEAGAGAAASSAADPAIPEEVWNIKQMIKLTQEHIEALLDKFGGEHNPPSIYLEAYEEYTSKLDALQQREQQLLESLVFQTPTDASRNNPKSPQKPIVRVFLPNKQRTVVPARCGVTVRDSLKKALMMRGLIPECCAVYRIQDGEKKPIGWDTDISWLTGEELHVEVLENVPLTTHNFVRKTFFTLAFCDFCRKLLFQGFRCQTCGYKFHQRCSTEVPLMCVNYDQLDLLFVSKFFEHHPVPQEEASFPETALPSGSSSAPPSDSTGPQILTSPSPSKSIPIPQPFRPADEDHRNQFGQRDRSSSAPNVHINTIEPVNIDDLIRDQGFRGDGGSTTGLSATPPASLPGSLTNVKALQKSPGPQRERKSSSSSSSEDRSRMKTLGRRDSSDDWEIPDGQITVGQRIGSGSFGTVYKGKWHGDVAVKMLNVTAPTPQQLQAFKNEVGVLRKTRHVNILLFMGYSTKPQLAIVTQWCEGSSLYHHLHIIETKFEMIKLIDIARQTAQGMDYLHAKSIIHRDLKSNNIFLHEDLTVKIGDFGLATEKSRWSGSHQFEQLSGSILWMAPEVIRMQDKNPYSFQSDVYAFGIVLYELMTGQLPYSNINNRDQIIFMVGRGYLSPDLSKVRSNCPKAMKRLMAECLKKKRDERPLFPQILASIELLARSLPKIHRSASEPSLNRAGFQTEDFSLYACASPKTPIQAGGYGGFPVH
Experimental: BRAFV600E inhibitory assay
V600E mutant BRAF kinase assay was performed to investigate the activity of tested compounds against BRAF. Mouse full-length GST-tagged BRAFV600E (7.5 ng, Invitrogen, PV3849) was pre-incubated with drug (1 µL) and assay dilution buffer (4 µL) for 60 min at 25 °C. In assay dilution buffer, a solution (5 µL) containing MgCl2 (30 mM), ATP (200 µM), recombinant human full length (200 ng) and N-terminal His-tagged MEK1 (Invitrogen) was added to start the assay, subsequent to incubation for 25 min at 25 °C. The assay was stopped using 5X protein denaturing buffer (LDS) solution (5 µL). To further denature the protein, heat (70° C) was applied for 5 min.
10 µL of each reaction was loaded into the precast plates and electrophoresis was allowed to proceed. After completion of electrophoresis, the front part of the precast gel plate (holding hot ATP) was cut and afterwards cast-off. The dried gel was developed using a phosphor screen.

[14] = Cell viability assay (MTT) on MCF-10A; assay type: cell-based; conditions: human, MCF-10A mammary gland epithelial cells, MCF-10A cells, four days
Experimental: To assess the viability of compounds IV and Va–i, the human mammary gland epithelial (MCF-10A) cell line was exploited. Compounds IV and Va–i were cultured for four days on MCF-10A cells before being evaluated for vitality using the MTT assay.
To test the viability of the new compounds, the human mammary gland epithelial (MCF-10A) cell line was used. Compounds IV and Va–i were incubated on MCF-10A cells for four days before being tested for viability using the MTT assay. See Supplementary Materials.
4.2. Biological evaluation
4.2.1. Cytotoxic activity using MTT Assay and evaluation of IC50
MTT assay was performed to investigate the effect of the synthesized compounds on mammary epithelial cells (MCF-10A). The cells were propagated in medium consisting of Ham's F-12 medium/ Dulbecco's modified Eagle's medium (DMEM) (1:1) supplemented with 10% foetal calf serum, 2 mM glutamine, insulin (10 μg/mL), hydrocortisone (500 ng/mL) and epidermal growth factor (20 ng/mL). Trypsin ethylenediamine tetra acetic acid (EDTA) was used to passage the cells after every 2-3 days. 96-well flat-bottomed cell culture plates were used to seed the cells at a density of 10^4 cells mL-1. The medium was aspirated from all the wells of culture plates after 24 h followed by the addition of synthesized compounds (in 200 μL medium to yield a final concentration of 0.1% (v/v) dimethyl sulfoxide) into individual wells of the plates. Four wells were designated to a single compound. The plates were allowed to incubate at 37°C for 96 h. Afterwards, the medium was aspirated and 3-[4,5-dimethylthiazol-2-yl]-2,5-diphenyltetrazolium bromide (MTT) (0.4 mg/mL) in medium was added to each well and subsequently incubated for 3 h. The medium was aspirated and 150 μL dimethyl sulfoxide (DMSO) was added to each well. The plates were vortexed followed by the measurement of absorbance at 540 nm on a microplate reader. The results were presented as inhibition (%) of proliferation in contrast to controls comprising 0.1%

[15] = target: T1, VEGFR-2; experiment: VEGFR-2 inhibitory assay
Experimental: Prepare all the solutions using autoclaved, deionized water and analytical grade reagents.
and store all the reagents at room temperature (unless indicated otherwise).
solution, add 5 mL ultra-pure water; 1×Kinase Assay Buffer: add 25 mL HEPES solution (1 M),
water, adjust pH to 7.5 and constant volume to 500 mL using ultrapure water; 4×Stop solution (40
mM): Mix 0.8 mL of the foregoing EDTA solution, 1 mL 10×Detection Buffer and 8.2 mL ultra-
pure water; 1×Detection Buffer: Mix 1 mL 10×Detection Buffer with 9 mL water; 4×VEGFR
μM) was added to 624 μL 1×Kinase Assay Buffer and mixed; 4×ULight™-labeled JAK1
concentration 5 μM) was added to 576 μL 1×Kinase Assay Buffer and mixed; 4×ATP Solution
2×substrate/ATP Mix: 560 μL foregoing 4×ULight™-labeled JAK1 and 560 μL 4×ATP solution
and mixed (prepared before use). The assays used an ULight-labeled peptide substrate and a
Europium-W1024-labeled antiphosphotyrosine antibody. The VEGFR-2 was purchased from
Carna Biosciences, Inc. (New York, USA). The 384-well plates were obtained from PerkinElmer.
5 μL 2×VEGFR-2 kinase solution (0.5 nM)
was added to 384-well plates homogeneous mixing and pre-reaction at room temperature for 30 min. Next, 2.5 μL 4×Ultra ULightTM-JAK-1(Tyr1023) Peptide (200 nM)/ATP (40 μM) was added to the corresponding wells of a 384-well plate. Negative control: 2.5 μL/well 4×substrate/ATP mixture and 7.5 μL 1×kinase assay buffer in 384-well plate well. Positive control:
μL/well 2×VEGFR-2 kinase solution was added to the 384-well plate, The final concentration of DMSO in the mixing system was 4%. After incubation at room temperature and dark for 60 min, 5 μL 4×stop solution was added to corresponding wells to react for 5 min and then 5 μL 4×detection mix was added to the corresponding wells of a 384-well plate. The mixture was centrifugally mixed and stayed for 60 min at room temperature for color development. The plate was read using a Envision plate reader. The inhibition rate (%) = (positive well reading-compound well reading)/(positive well reading-negative well reading)×100. The corresponding IC50 values were calculated using GraphPad Prism 5.0.

[16] = system: colon cancer (HT-29) cell line; experiment: Antiproliferative assay, HT-29; assay type: cell-based; conditions: Homo sapiens, read-out: Antiproliferative Activity IC50 ± SEM, HT-29
Experimental: as §1, §4, §2
as §3, with “DNA. Cells whose cell membranes are damaged or have changed permeability are counted as dead ones. The assay was performed by seeding the cells of different cell lines at a density of 3000-7500 cells/well (in200μl medium) in culture plates followed by incubation for 24h at 37 °C in humidified 5%CO2/95% air atmospheric conditions. The medium” for “The medium”
as §5

[17] = system: mutant EGFR vs wild-type EGFR; conditions: cited from earlier work
[18] = four cancer cell lines, read-out: GI50 vs four cancer cell lines

T1 sequence (P35968 20-1356): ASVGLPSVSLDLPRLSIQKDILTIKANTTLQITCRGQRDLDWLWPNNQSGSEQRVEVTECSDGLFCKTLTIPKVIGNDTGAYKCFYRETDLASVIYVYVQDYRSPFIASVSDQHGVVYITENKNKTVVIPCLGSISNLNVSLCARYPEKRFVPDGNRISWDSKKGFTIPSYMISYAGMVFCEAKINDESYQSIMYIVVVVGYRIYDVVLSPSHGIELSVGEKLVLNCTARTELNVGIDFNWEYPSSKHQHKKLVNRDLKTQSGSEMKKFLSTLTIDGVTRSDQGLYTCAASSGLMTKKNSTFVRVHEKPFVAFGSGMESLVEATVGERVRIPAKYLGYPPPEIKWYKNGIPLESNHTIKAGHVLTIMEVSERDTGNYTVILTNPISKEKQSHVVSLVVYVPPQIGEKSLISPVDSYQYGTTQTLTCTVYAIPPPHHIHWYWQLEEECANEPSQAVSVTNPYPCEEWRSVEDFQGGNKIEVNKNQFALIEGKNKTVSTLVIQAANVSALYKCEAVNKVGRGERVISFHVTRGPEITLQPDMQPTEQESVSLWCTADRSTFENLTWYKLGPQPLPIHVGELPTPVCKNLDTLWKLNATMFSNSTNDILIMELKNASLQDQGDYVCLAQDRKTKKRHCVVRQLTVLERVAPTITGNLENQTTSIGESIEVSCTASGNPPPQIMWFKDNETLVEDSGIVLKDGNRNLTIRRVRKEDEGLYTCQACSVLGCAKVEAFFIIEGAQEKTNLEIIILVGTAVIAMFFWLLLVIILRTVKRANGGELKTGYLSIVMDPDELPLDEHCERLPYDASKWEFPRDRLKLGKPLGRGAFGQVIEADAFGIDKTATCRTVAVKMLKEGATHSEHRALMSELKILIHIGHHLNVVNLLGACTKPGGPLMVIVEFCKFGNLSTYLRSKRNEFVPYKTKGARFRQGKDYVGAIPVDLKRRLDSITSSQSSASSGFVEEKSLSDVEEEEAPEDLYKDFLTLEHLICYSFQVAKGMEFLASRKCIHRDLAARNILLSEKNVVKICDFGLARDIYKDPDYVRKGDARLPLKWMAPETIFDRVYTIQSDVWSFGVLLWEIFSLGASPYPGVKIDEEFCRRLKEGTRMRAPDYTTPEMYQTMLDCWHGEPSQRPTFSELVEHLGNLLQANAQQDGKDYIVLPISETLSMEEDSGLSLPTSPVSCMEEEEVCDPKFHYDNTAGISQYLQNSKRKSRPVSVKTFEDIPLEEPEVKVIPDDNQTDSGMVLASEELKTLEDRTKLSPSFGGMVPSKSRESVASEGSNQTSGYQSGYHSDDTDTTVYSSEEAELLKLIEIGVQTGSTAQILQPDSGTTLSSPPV

c1nc(Nc2ccc(N3CCOCC3)cc2)cc(Oc2ccc3[nH]ccc3c2)n1 [Compound 4]
IC50 [1]: 1200 nM | IC50 [2]: 7 nM

Cc1c2cc(Cl)ccc2n2cc(Cc3ccccc3)[nH]c(=O)c12 [Compound 6]
IC50 [3]: 100 nM | GI50 ([4]; three cancer cell lines, read-out: GI50 vs three cancer cell lines): 500 nM

Cc1c2n(c3ccc(Cl)cc13)C(=O)CN(CCc1ccc(N3CCOCC3)cc1)C2=O [Compound 7]
IC50 [3]: 150 nM | GI50 [4, 18]: 1100 nM

CCOCc1c2n(c3ccc(Cl)cc13)C(=O)CN(CCc1ccc(N3CCOCC3)cc1)C2=O [Compound 9]
IC50 [3]: 45 nM | GI50 [4, 18]: 35 nM

Cc1c(C(=O)NCCc2ccc(N3CCCC3C)cc2)[nH]c2ccc(Cl)cc12 (centres unmarked) [Compound 10]
GI50 [4, 18]: 950 nM | IC50 [5]: 13 nM

CCOC(=O)c1[nH]c2ccc(Cl)cc2c1CNCCc1cccc(N2CCCCC2)c1 [Compound 11]
IC50 [3]: 35 nM | GI50 [4, 18]: 29 nM | IC50 [6]: 8.6 nM

CCc1c(C(=O)NCCc2ccc(N3CCOCC3)cc2)[nH]c2ccc(C)cc12 [Compound 12]
GI50 [4, 18]: 37 nM | IC50 [5]: 16 nM

CCOCc1c(C(=O)NCC(c2ccccc2)c2c(-c3ccccc3)[nH]c3ccccc23)[nH]c2ccc(Cl)cc12 (centres unmarked) [Compound Vh, 5-Chloro-3-(ethoxymethyl)-N-(2-phenyl-2-(2-phenyl-1H-indol-3-yl)ethyl)-1H-indole-2-carboxamide]
GI50 [7]: 37 nM | Caspase-3 Conc [8]: 460 ± 4 pg/mL | Caspase-3 Fold Change [8]: 7 | IC50 [9]: 36 ± 3 nM | IC50 [10]: 34 ± 3 nM | IC50 [11]: 38 ± 3 nM | melting point: 210 to 212 °C | IC50 [12]: 85 ± 7 nM | IC50 [13]: 89 ± 7 nM | viability at 96 h, 50 µM [14]: 90% | IC50 [15]: 3.25 ± 0.25 nM | IC50 [16]: 38 ± 3 nM

C=CC(=O)Nc1cc(Nc2nccc(-c3cn(C)c4ccccc34)n2)c(OC)cc1N(C)CCN(C)C [Osimertinib]
selectivity for the mutant protein over wild-type EGFR [17]: approximately 200 times

O=C(NCC(c1ccccc1)c1c(-c2ccccc2)[nH]c2ccccc12)c1[nH]c2ccc(Cl)cc2c1CO (centres unmarked) [Ve, 5-Chloro-3-(hydroxymethyl)-N-(2-phenyl-2-(2-phenyl-1H-indol-3-yl)ethyl)-1H-indole-2-carboxamide]
GI50 [7]: 44 nM | Caspase-3 Conc [8]: 462 ± 4 pg/mL | Caspase-3 Fold Change [8]: 7 | IC50 [9]: 44 ± 4 nM | IC50 [10]: 42 ± 4 nM | IC50 [11]: 46 ± 4 nM | melting point: 132 to 134 °C | IC50 [12]: 94 ± 7 nM | IC50 [13]: 97 ± 8 nM | viability at 96 h, 50 µM [14]: 90% | IC50 [15]: 1.1 ± 0.08 nM | IC50 [16]: 45 ± 4 nM

O=C(NCC(c1ccccc1)c1c(-c2ccccc2)[nH]c2ccccc12)c1[nH]c2ccc(Cl)cc2c1-c1ccccc1 (centres unmarked) [Vf, 5-Chloro-3-phenyl-N-(2-phenyl-2-(2-phenyl-1H-indol-3-yl)ethyl)-1H-indole-2-carboxamide]
GI50 [7]: 48 nM | IC50 [9]: 48 ± 4 nM | IC50 [10]: 46 ± 4 nM | IC50 [11]: 49 ± 4 nM | melting point: 131 to 133 °C | IC50 [12]: 103 ± 8 nM | IC50 [13]: 107 ± 9 nM | viability at 96 h, 50 µM [14]: 91% | IC50 [15]: 2.5 ± 0.2 nM | IC50 [16]: 48 ± 4 nM
